These results are taken from article PMC8467575, “Bacterial-Specific Aggregation and Killing of Immunomodulatory Host Defense Peptides” (Pharmaceuticals, 2021).

Molecules are shown by their SMILES. ≈ marks a conversion by molar mass, not a printed value. Like-named read-outs stand apart in the source and are kept apart here. Where a SMILES comes first, the peptide text is derived from it. Bridges are numbered along the chain shown (N, C = ends).

Data set [1] has as its system Listeria monocytogenes ATCC 19115. In kind it is cell-based. How it is done: (§1) E. coli, S. aureus, and S. enterica were cultured in nutrient broth at 37 °C. Listeria was cultured in brain heart infusion broth at 37 °C. Bacteria at early log phase (OD600 ≈ 0.1) were incubated with the peptides at different concentrations (100–3.12 µM) for 4–6 h. After the incubation period, the bacterial culture medium was diluted at different ratios (1 in 2000–2,000,000) in sterile PBS and was spread on blood agar (BA) plates. BA plates were incubated at 37 °C for 24 h, and the number of colonies formed was counted to determine cell viability.

Data set [2] relates to chicken red blood cell suspension. Briefly: Hemolysis assay. Type of data set: cell-based. The conditions noted are these: eukaryotic cells (cytotoxicity and hemolysis at 100 µM) versus antibacterial IC50. How it is done:
A chicken red blood cell suspension was purchased from Cedarlane (Burlington, CA). RBCs were incubated with a 100 µM concentration of each peptide at 37 °C for 4 h. Triton-X was used as a positive control to achieve total hemolysis of RBCs. Percentage hemolysis was determined in triplicate by centrifuging down the RBC suspension and by measuring the absorbance of the supernatant at 540 nm. (2) % Hemolysis=Absorbance of sample @540nm /Absorbance of positive control @540nm×100%.

Data set [3] concerns E. coli (ATCC 25922GFP) in Caco-2 cells. Briefly: Bacterial infection of Caco-2 cells. In kind it is cell-based, Escherichia coli. The conditions noted are these: 400,000 CFU/mL GFP-expressing E. coli, 5 µM peptide, 5 h, fluorescence microscopy. The protocol: Caco-2 cells grown in six-well plates were also infected with E. coli (ATCC 25922GFP) at a CFU of 400,000 cells/mL. Cells were then incubated with 5 µM of TAMRA-labeled peptides for 5 h and were observed under fluorescence microscope for the presence of fluorescent bacteria.

Data set [4] has as its system Escherichia coli ATCC 25922. In words: microbe, parasite or virus in culture. Type of data set: cell-based. The protocol:
as §1

In data set [5] the test system is Staphylococcus aureus ATCC 25923. Briefly: microbe, parasite or virus in culture. In kind it is cell-based. How it is done: as §1
Data set [6] has as its system Salmonella enterica ATCC 13076. In words: microbe, parasite or virus in culture. Type of data set: cell-based. The conditions noted are these: for MIC: read-out: MIC S. enterica. How it is done: as §1
A further data set has as its system Bacillus subtilis. Briefly: Bacterial uptake of TAMRA-labeled peptides. In kind it is cell-based. Conditions: 5 µM, up to 5 h, log phase culture, fluorescence of free peptide in supernatant, triplicate. The protocol:
(§2) TAMRA-conjugated peptides were used for cellular uptake studies. Liquid cultures of E. coli and Bacillus subtilis at log phase (OD600 ≈ 0.3–0.4) were incubated with TAMRA-labeled peptides (5 µM), and the percentage uptake of peptides was determined in triplicate for 5 h by measuring the fluorescence of free peptide in the supernatant of bacteria at […] wavelengths of 579 and 546 nm. (1) % Uptake=100−Fluorescence of supernatant/Initial fluorescence of sample×100%

Data set [7] relates to DF-1 chicken embryonic fibroblasts. Briefly: Cytotoxicity assay (MTS). Type of data set: cell-based. The conditions noted are these: 100 µM peptide, 24 h, triplicate. How it is done:
(§3) DF-1 chicken embryonic fibroblasts were cultured in DMEM containing 8% FBS and 2% CS. Caco-2 cells were cultured in EMEM containing 20% FBS. Cells in growth phase (~70% confluency) were incubated with a 100 µM concentration of each peptide for 24 h. Cell viability was determined in triplicate by MTS assay using the CellTiter 96® AQueous Cell Proliferation Assay, as per the manufacturer’s protocol.

The subject of the next data set is Caco-2 cells. Briefly: Cytotoxicity assay (MTS). In kind it is cell-based, human. The conditions noted are these: 100 µM peptide, 24 h, triplicate. The protocol:
as §3

The subject of the next data set is E. coli. In words: Bacterial uptake of TAMRA-labeled peptides. In kind it is cell-based, Escherichia coli. Conditions: 5 µM, up to 5 h, log phase culture, fluorescence of free peptide in supernatant, triplicate. How it is done: as §2
Data set [8] deals with Caco-2 human colorectal adenocarcinoma cells. In words: Cellular uptake of TAMRA-labeled peptides (flow cytometry, fluorescence microscopy). Type of data set: cell-based. Conditions: 5 h. How it is done: Caco-2 human colorectal adenocarcinoma cells were cultured to growth phase (~70% confluency) in EMEM containing 20% FBS and were treated with 5 µM of TAMRA-labeled peptides for 5 h. The uptake of fluorescently labeled peptide in Caco-2 human colorectal adenocarcinoma cells was measured by flow cytometry using BD FACS Calibur (BD Biosciences (Franklin Lakes, NJ, USA)) and by fluorescence microscopy.

Consider `CC[C@H](C)[C@@H]1NC(=O)[C@H](CCCNC(=N)N)NC(=O)[C@H](Cc2ccccc2)NC(=O)[C@H](CCCCN)NC(=O)[C@H](Cc2ccccc2)NC(=O)[C@H](CCCNC(=N)N)NC(=O)[C@@H](N)CSSC[C@@H](C(N)=O)NC(=O)[C@H]([C@@H](C)CC)NC(=O)[C@H](C(C)C)NC1=O` [mCA4-5] (H-CRFKFRIVIC-NH2; disulfide 1-10), for which, in data set [1], the 50% inhibitory concentration (IC50) (in general, the concentration that gives 50% inhibition) was 5.2 µM and the “MIC L. monocytogenes” value is given as 10 µM (≈ 12.8 µg/mL). For the same compound, the “nontoxic and hemocompatible concentration as fold of the IC50 of the peptide” value in data set [2] was over 6 fold. Besides, in data set [3], the “reduction of bacterial infection of Caco-2 cells” value is “actively contained and reduced bacterial infections”. Moreover, in [4] (ATCC 25922), 15.1 µM corresponded to half-maximal inhibition (IC50) and the “MIC E. coli” value turned out to be 40 µM (≈ 51.3 µg/mL). Further, in data set [5] (ATCC 25923), the IC50 was 4 µM and the “MIC S. aureus” value is 15 µM (≈ 19.2 µg/mL). In addition, in [6] (ATCC 13076), 10.2 µM corresponded to half-maximal inhibition (IC50) and the MIC stood at 30 µM (≈ 38.5 µg/mL).

Regarding `N=C(N)NCCC[C@@H]1NC(=O)[C@H](CCCNC(=N)N)NC(=O)[C@H](CCCNC(=N)N)NC(=O)[C@@H](N)CSSC[C@@H](C(N)=O)NC(=O)[C@H](Cc2c[nH]cn2)NC(=O)[C@@H]2CCCN2C(=O)[C@H](CO)NC(=O)CNC1=O` [mCA4-4] (H-CRRRGSPHC-NH2; disulfide 1-9), the “uptake of TAMRA-labeled peptide in B. subtilis” value in the data set with Bacillus subtilis is “taken up well”. The “viability of DF-1 fibroblasts” value in data set [7] was “did not compromise the viability”. For the same compound, the “viability of Caco-2 intestinal epithelial cells” value with Caco-2 cells is “did not compromise the viability”. In addition, the “uptake of TAMRA-labeled peptide in E. coli” value in the data set with E. coli is listed as “taken up well”. Also, in data set [8] (Caco-2, 5 µM TAMRA-labeled peptide, flow cytometry), the “% fluorescent cells (cellular uptake)” value came to 19%. In data set [8] (Caco-2, TAMRA-labeled peptide), the “uptake of fluorescent peptide seen by fluorescence microscopy” value was “weak fluorescence”. Also, the “reduction of bacterial infection of Caco-2 cells” value in data set [3] is “unable to reduce the bacterial burden”.

Take `CC1(C)S[C@@H]2[C@H](NC(=O)[C@H](N)c3ccccc3)C(=O)N2[C@H]1C(=O)O` [Ampicillin, reference compound]: the IC50 was 15.2 µM in data set [4] (Escherichia coli, ATCC25922, early log phase (OD600 ≈ 0.1), nutrient broth 37 °C, peptide 100–3.12 µM for 4–6 h, colony count on blood agar after 24 h, read-out: IC50 E. coli); 3.6 µM in [5] (Staphylococcus aureus, ATCC25923, early log phase (OD600 ≈ 0.1), nutrient broth 37 °C, peptide 100–3.12 µM for 4–6 h, colony count on blood agar after 24 h, read-out: IC50 S. aureus); 7 µM in [6] (Salmonella enterica, ATCC13076, early log phase (OD600 ≈ 0.1), nutrient broth 37 °C, peptide 100–3.12 µM for 4–6 h, colony count on blood agar after 24 h, read-out: IC50 S. enterica). In addition, in data set [6] (Salmonella enterica, ATCC13076, early log phase, nutrient broth 37 °C, 4–6 h, colony count on blood agar), the MIC was 13.5 µM (≈ 4.72 µg/mL).
